Where two headings read alike, the source gives them in different places.
Key:
KRas^G12D GDP [1] = target: T1, KRas^G12D GDP (Homo sapiens, UniProt P01116, G12D); format: binding; details: tested at 60 μM; probe 9 100 µM, protein 2 µM GDP-bound
T1 construct: HRas 1-166 (His-TEV-N; pProEx; ampicillin resistance) and KRas 1-169; His tag with TEV site (N, cleaved yes); made in house; host or cells: E. coli BL21(DE3)

[2] = target: T2, KRas^G12D GDP and KRas^G12D GNP (Homo sapiens, UniProt P01116, G12D); test: Dual-probe (9 and 12 in mixture) 19F CPMG NMR monitoring of both nucleotide states; format: binding; details: 6 μM each state
T2 construct: HRas 1-166 (His-TEV-N; pProEx; ampicillin resistance) and KRas 1-169; His tag with TEV site (N, cleaved yes); made in house; host or cells: E. coli BL21(DE3)
Text: (1 picture or pasted object on this page, not shown here)

KRas^G12D = target: KRas^G12D; set-up: method as in PMID 34889605; details: cited from earlier work
Aqueous solubility = format: physicochemical
KRas^G12D GDP [3] = target: T1, KRas^G12D GDP; test: 19F CPMG NMR probe binding (I/I0 vs probe concentration), GDP state
Text: (§1) We then sought to determine whether these SIIG-binders could serve as probe ligands to detect KRas proteins by ^19F NMR spectroscopy. One-dimensional CPMG experiments [90-(τ-180-τ)n], in which a spin–echo with delay τ is looped n times, attenuate signal intensity as a function of the transverse relaxation rate (R2) and total spin echo time (2·τ·n). Prior studies have shown that reversible binding of proteins to fluorine-containing small molecules induces an increase in the observed ^19F R2 at long values of τ, which maximize the exchange contribution to R2.[24],[25] […] Further modifications to the probe structure were required to improve its binding affinity and the sensitivity of the ^19F CPMG NMR assay.
(§2) The probe and protein concentrations were varied to determine the dependence on each binding partner. The normalized integrals (I/I0) of the probes decreased exponentially with increasing protein concentrations (Figure 2C, Figure S2C,D). The normalized integrals increased with increasing probe concentrations, and KD values for the probe–protein binding were extracted by fitting the data to eq 1 (Figure 2D, SI).
(§3) All non-linear regressions were performed in Graphpad Prism v9 with data points handled as individual values.
(§4) Constrained constants are noted.
(§5) Integrals (I) from single-point CPMG experiments were calculated by dividing the probe’s absolute integral by the standard’s absolute integral (3-trifluoromethylphenol, 3TFMP) from the same sample. The resulting integral values (I) were averaged (n=3) and then normalized by dividing by the measurement obtained in the absence of protein (I0, n=1 or 3). Errors in I/I 0 and -ln(I/I0) were propagated from the standard devi ations (SD) in I and I 0. In all cases, I and I0 were measured from the same premixed aliquot of probe and 3 -trifluoromethylphenol.
(§6) The KD values of probes were calculated by fitting normalized integrals to equation 1 , where I and I0 are the integrals in the presence and absence of protein, respectively, A is a constant in Hz, t is the total spin-echo time (2·τ·n), and [P]0 and [L]0 are the total concentrations of protein and probe, respectively (constraining [P]0 and t). See the supplementary information for derivation.
(§7) I⁄I = e−A∙t∙[P]0⁄(KD+[L]0) (eq 1) […]
(§8) Preparation of Ras proteins.
(§9) The plasmids for bacterial expression of HRas 1-166 (His-TEV-N; pProEx; ampicillin resistance) and KRas 1-169 (His-TEV-N; pJ411; kanamycin resistance) have been previously published.1 Mutants were obtained by site-directed mutagenesis (Q5, NEB; or Genscript Biotech). BL21(DE3) competent cells were transformed with 1-2 ng of plasmid.
(§10) Cultures for the preparation of natural abundance isotope proteins were grown at 37 °C (A600 0.4 -0.6) in Terrific Broth (Sigma Aldrich), induced (1 mM IPTG), and allowed to express protein overnight at 18 °C. Cultures for the preparation of U -15N proteins were grown and induced in M9 minimal media supplemented with 1 g/L 15NH4Cl (CIL).
(§11) Cells were collected by centrifugation, lysed by sonication (Tris buffer pH 8.0, supplemented with 1 mM PMSF or 1 tablet per 50 ml EDTA-free cOmplete, Roche), and cleared by centrifugation. His -tagged Ras proteins were isolated with Co TALON resin (Takara Bio), the nucl eotide was exchanged to GDP by dialysis (0.5 mM EDTA), the His tag was cleaved with TEV protease, and the protein was purified by anion exchange (Tris buffer pH 8.0, 50 -500 NaCl gradient, HiTrap Q HP, Cytiva) and gel filtration (HEPES storage buffer pH 7.5 , Superdex 75, GE or Cytiva).
(§12) Nucleotide exchange from GDP to GPPNHP (Jena Biosciences) was performed with samples of protein reserved prior to the final gel filtration purification and according to a published procedure comprising EDTA -mediated exchange, desalting, and cleavage of residual GDP with an alkaline phosphatase (CIP or Quick CIP, NEB) 1-4, and then purified by gel filtration. Proteins were concentrated (10k Amicon Ultra, Millipore) to 0.5-1 mM, concentrations were […]
flash frozen in liquid N2 and stored at -80 °C. […]

[4] = target: T3, U-15N KRas^G12D GDP 1-169 (Homo sapiens, UniProt P01116, G12D); test: 1H-15N HSQC NMR binding; details: six peaks fit to single site binding curve; pH 7.4, 298 K, 10% dmso-d6, 50 µM protein; error is SD of six peaks
T3 construct: HRas 1-166 (His-TEV-N; pProEx; ampicillin resistance) and KRas 1-169; His tag with TEV site (N, cleaved yes); made in house; host or cells: E. coli BL21(DE3)

[5] = target: T4, KRas^G12D (both nucleotide states) (Homo sapiens, UniProt P01116, G12D); test: 19F CPMG NMR detection of KRas^G12D by probes (normalized integrals I/I0); format: binding; details: probe 100 μM, KRas^G12D 6 μM; for sensitivity of detection compared to 3 and 4: 160 ms CPMG; for nucleotide state detected: GDP vs GNP
T4 construct: HRas 1-166 (His-TEV-N; pProEx; ampicillin resistance) and KRas 1-169; His tag with TEV site (N, cleaved yes); made in house; host or cells: E. coli BL21(DE3)
Text: as §1
To improve the sensitivity of this method for oncogenic KRas proteins and to explore the relationship between structure and nucleotide-state specificity, we synthesized a series of derivatives of 3 and 4 with varied structure at the aryl ring expected to be buried deepest within the pocket, and these derivatives were evaluated by CPMG NMR spectroscopy against both nucleotide states of KRas^G12D (6 μM; Figure 2A,B). […] Probe 9 relaxed more slowly in the absence of protein (R2,free = 2.4 Hz) than did compounds containing the C-5 hydroxy group (R2,free = 6.3 Hz for 4, 4.4 Hz for 12, and 5.0 Hz for 17), increasing the sensitivity and dynamic range of integral measurements with this probe (Figure S2). Furthermore, probe 9 was confirmed to be a tighter binder to the SIIG of U–^15N KRas^G12D GDP by HSQC NMR compared to 4 (Figure S3).
Figure 2 SAR of SIIG binders enables more sensitive detection of KRas^G12D. (a) Chemical structures of SIIG binders. (b) Normalized integrals (I/I0) from ^19F CPMG NMR spectra (160 ms) of probes (100 μM) with KRas^G12D (6 μM); values are means ± errors propagated from SD (n = 3). (c) Effect of varying KRas^G12D concentration on I/I0; values are means ± errors propagated from SD (n = 3). (d) Effect of varying probe concentration on I/I0; [P]0 = 6 μM for probes 9 and 12, 3 μM for probe 17; individual points shown (n = 3); data fit to eq 1 (SI).
as §8, §9, §10, §11, §12
flash frozen in liquid N2 and stored at -80 °C.
Storage buffer: 20 mM HEPES, 150 mM NaCl, 1 mM MgCl2. Titrated to pH 7.5 with NaOH. Storage buffer for U- […]

[6] = test system: panel of KRas proteins (G12 and Q61 mutations), GDP and GNP states; test: 19F CPMG NMR detection of a panel of KRas and HRas proteins; format: binding; details: probe 100 μM, protein 6 μM, 160 ms CPMG
Description: The closely related protein HRas 1–166 contains only one residue difference within the SIIG binding site (Q95 in HRas vs H95 in KRas). HRas was only weakly detected by this method; however, the results with HRas^Q95H closely matched those obtained with KRas^WT.
Figure 3 ^19F CPMG NMR spectroscopy detects a variety of oncogenic KRas proteins. Normalized integrals (I/I0) from ^19F CPMG NMR spectra (160 ms) of 100 μM 9 (a), 12 (b), or 17 (c) in the presence of 6 μM KRas or HRas proteins; values are means ± errors propagated from the SDs of I and I0 (n = 3).
as §8, §9, §10
Cells were collected by centrifugation, lysed by sonication (Tris buffer pH 8.0, supplemented with 1 mM PMSF or 1 tablet per 50 ml EDTA-free cOmplete, Roche), and cleared by centrifugation. […]
1D 1H (ZGESGP) and 2D 1H-15N fast HSQC (FHSQCCF3GPPH, NS = 8, TDF1 = 256, GARP decoupling) spectra were recorded at 298 K on an 800 MHz Bruker Avance NEO spectrometer equipped with an actively shielded Z-gradient 5 mm TCI cryoprobe (H&F/C/N) using programs from the pulse program library (TopSpin 4.0.8). Spectra were processed and analyzed with Bruker Topspin 4.0 and CCPNMR Analysis v3.5 1H chemical shifts were referenced to 1 mM DSS at 0 ppm; 15N chemical shifts were referenced indirectly with Ξ = 0.101329118. […]

KRas^G12D GNP = target: T5, KRas^G12D GNP (Homo sapiens, UniProt P01116, G12D); test: 19F CPMG NMR probe binding (I/I0 vs probe concentration), GNP state
T5 construct: HRas 1-166 (His-TEV-N; pProEx; ampicillin resistance) and KRas 1-169; His tag with TEV site (N, cleaved yes); made in house; host or cells: E. coli BL21(DE3)
Text: as §1, §2, §3, §4, §5, §6, §7, §8
as §9, with “plasmid. […]” for “plasmid.”

[7] = 19F CPMG 160 ms, varying probe concentration, [P]0 = 6 μM for 9 and 12, 3 μM for 17, fit to eq 1, read-out: KD
[8] = non-linear regression eq 1, t=0.16 s, read-out: KD (extracted value, Table S1)
[9] = 19F CPMG 160 ms, varying probe concentration, [P]0 = 6 μM for 12, 3 μM for 17, fit to eq 1, read-out: KD

| Structure (SMILES) | Kd (KRas^G12D GDP [3]; [7]) | Kd (KRas^G12D GDP [3]; [8]) | sensitivity of detection compared to 3 and 4 [5] | nucleotide state detected [5] | detection of oncogenic KRas proteins [6] | also measured |
| --- | --- | --- | --- | --- | --- | --- |
| C=CC(=O)N1CC2(CC(n3nc(-c4ccc5c(cnn5C)c4)c(-c4c(Cl)c(C)cc5[nH]ncc45)c3C)C2)C1 [JDQ443] |  |  |  |  |  | occupancy of the SIIP of KRas^G12D (KRas^G12D GDP [1]): did not occupy |
| C#Cc1c(F)ccc2cc(O)cc(-c3ncc4c(N5CC6CCC(C5)N6)nc(OC[C@@]56CCCN5C[C@H](F)C6)nc4c3F)c12 [MRTX1133] |  |  |  |  |  | nucleotide state occupied ([2]; 9 and 12 50 μM each, MRTX849 60 μM, MRTX1133 in excess 15 μM, KD2 30 μM): occupied both nucleotide states; nucleotide state occupied ([2]; substoichiometric quantities (2, 4, and 6 μM)): selectively occupied the GDP-state; Ki (KRas^G12D; GDP state): < 1 pM; binding affinity (KRas^G12D): subpicomolar |
| C=CC(=O)Nc1cc(Cl)cc(NC(=O)c2cnn(-c3ccc(OC)cc3)c2C(F)(F)F)c1 [compound 2] |  |  |  |  |  | aqueous solubility (Aqueous solubility): very low |
| NCCNC(=O)COCCOc1ccc(-n2ncc(C(=O)Nc3ccc(O)c(Cl)c3)c2C(F)(F)F)cc1 [compound 9] | 200 µM | 204 µM | increased sensitivity | specifically detected the GDP state | most sensitively detected the GDP state of KRas^G12D | Kd [4]: 580 ± 280 µM |
| Cc1c(Cl)cc(O)cc1NC(=O)c1cnn(-c2ccc(OCCOCC(=O)NCCN)cc2)c1C(F)(F)F [compound 12] | 310 µM | 307 µM | increased sensitivity | detected both nucleotide states with similar sensitivity | detected both nucleotide states of all oncogene products tested | Kd (KRas^G12D GNP; [9]): 780 µM; Kd (KRas^G12D GNP; [8]): 778 µM |
| NCCNC(=O)COCCOc1ccc(-n2ncc(C(=O)Nc3cc(O)cc(Cl)c3C3CC3)c2C(F)(F)F)cc1 [compound 14] |  |  | increased sensitivity |  |  |  |
| Cc1c(NC(=O)c2cnn(-c3ccc(OCCOCC(=O)NCCN)cc3)c2C(F)(F)F)ccc(O)c1Cl [compound 15] |  |  | increased sensitivity |  |  |  |
| NCCNC(=O)COCCOc1ccc(-n2ncc(C(=O)Nc3cc(O)cc4ccccc34)c2C(F)(F)F)cc1 [compound 17] | 350 µM | 352 µM | increased sensitivity | detected both nucleotide states with similar sensitivity | detected both nucleotide states of all oncogene products tested | Kd (KRas^G12D GNP; [9]): 390 µM; Kd (KRas^G12D GNP; [8]): 393 µM |
